Measured values taken from patent US20090264379A1, “Stable aqueous solution of a polyene fungicide” (DSM IP ASSETS B.V., priority 2003, published 2009).

How the values were obtained:
[1] = Rest activity (stability) of completely dissolved natamycin in aqueous SDS solution over time, HPLC; format: physicochemical; settings: 1000 ppm natamycin added, 1% SDS
Experimental: This method was used to analyze the amount of
active natamycin in a water-based mixture of several components. The method was HPLC based using the International Dairy Federation (Provisional ADF Standard 140, 1987) with a Lichrosorb RP 8 column. Detection was by UV at 303 nm with a range of 0.1-4 mg/L with an injection volume of 20 μl. Sample preparation was carried out by weighing 2 gram prepared formulation with an accuracy of 1 mgram in a measuring flask. 4 ml demineralized water (demiwater) was added and the mixture was stirred for 15 minutes to get a homogeneous suspension. Subsequently 80 ml ethanol was added and the mixture was stirred for 10 minutes. After ultrasonic treatment the solution was filled up to 100 ml with de-minaralized water and then diluted and/or filtered (0.2 μm) before injecting. The amount of active natamycin was calculated as ppm against a series of standards of known natamycin concentrations.
The mixtures were made by adding 2 gram Delvocid (Natamycin) together with 50 gram 20% SDS solution and eventually additives to a final weight of 1000 gram with demineralised (=demi) water.
This crude mixture was mixed for 5 minutes to obtain a homogeneous mixture and accordingly adjusted to pH 4-6 with ammonia.
The obtained formulations with an added amount of active natamycin of 1000 ppm were stored at 18° C. in a closed pot in the dark.
The prepared mixtures were measured over time for the amount of active natamycin using the analytical method as described hereinabove.
The mixture as described in Example 1 was adjusted to pH=4.0 or pH=6.0 and the natamycin activity was measured over time.
The mixture as described in Example 1 is combined with 1000 ppm di-sodium-EDTA, adjusted to pH 6.0 and the natamycin activity was measured over time.

[2] = Visual solubility of polyene fungicides in water and water + SDS; format: physicochemical; settings: soluble if mixture is clear
Experimental: Mixtures are made with several polyene fungicides in several concentrations The used polyene fungicides are nystatin, amphotericin and natamycin. The solubility rate is measured visually of the polyene fungicides in demineralized water as such or according to example 1 in combination with SDS to a final SDS concentration of 1% (w/w). It is soluble if a mixture is clear after one minute stirring at room temperature.

Rest activity of completely dissolved natamycin over time ([1]; pH = 4.0, 3 weeks, stored at 18° C. in the dark)	Rest activity of completely dissolved natamycin over time ([1]; pH = 4.0, 9 weeks, stored at 18° C. in the dark)	Rest activity of completely dissolved natamycin over time ([1]; pH = 4.0, 1 day, stored at 18° C. in the dark)	Rest activity of completely dissolved natamycin over time ([1]; pH = 6.0 + Na2EDTA (1000 ppm di-sodium-EDTA), 3 weeks, 18° C. dark)	Rest activity of completely dissolved natamycin over time ([1]; pH = 6.0 + Na2EDTA (1000 ppm di-sodium-EDTA), 9 weeks, 18° C. dark)	Rest activity of completely dissolved natamycin over time ([1]; pH = 6.0 + Na2EDTA (1000 ppm di-sodium-EDTA), 1 day, 18° C. dark)	Rest activity of completely dissolved natamycin over time ([1]; pH = 6.0, 3 weeks, stored at 18° C. in the dark)	Rest activity of completely dissolved natamycin over time ([1]; pH = 6.0, 9 weeks, stored at 18° C. in the dark)	Rest activity of completely dissolved natamycin over time ([1]; pH = 6.0, 1 day, stored at 18° C. in the dark)	SMILES	Solublized after 1 minute stirring at room temperature ([2]; 250 ppm polyene fungicide in final mixture, solvent 1% (w/w) SDS)	Solublized after 1 minute stirring at room temperature ([2]; 250 ppm polyene fungicide in final mixture, solvent Demi-Water)	Solublized after 1 minute stirring at room temperature ([2]; 500 ppm polyene fungicide in final mixture, solvent 1% (w/w) SDS)	Solublized after 1 minute stirring at room temperature ([2]; 1000 ppm polyene fungicide in final mixture, solvent 1% (w/w) SDS)
<0.1 ppm	<0.1 ppm	672 ppm	805 ppm	560 ppm	1000 ppm	444 ppm	57 ppm	988 ppm	C[C@@H]1C/C=C/C=C/C=C/C=C/[C@H](O[C@@H]2O[C@H](C)[C@@H](O)[C@H](N)[C@@H]2O)C[C@@H]2O[C@](O)(C[C@@H](O)C[C@H]3O[C@@H]3/C=C/C(=O)O1)C[C@H](O)[C@H]2C(=O)O [Natamycin, natamycin]	–	–	–	–
–	–	–	–	–	–	–	–	–	C[C@@H]1[C@H](O)[C@@H](C)/C=C/C=C/CC/C=C/C=C/C=C/C=C/C(O[C@H]2O[C@H](C)[C@@H](O)[C@H](N)[C@@H]2O)CC2O[C@](O)(CC(O)C(O)CCC(O)CC(O)CC(O)CC(=O)O[C@H]1C)CC(O)C2C(=O)O (stereo partly shown) [Nystatin]	Yes	No	Almost	No
